Measurements as given in ChEMBL document CHEMBL1909046, “DrugMatrix in vitro pharmacology data”.

Target: Mitogen-activated protein kinase 14 (Homo sapiens, UniProt Q16539);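 also: inhibition of p38alpha enzyme activity in a biochemical kinase assay, with myelin basic protein serving as substrate; in other assays of this panel Not Active means under 50% inhibition at 10 µM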
Assay: not given
Design: species or system Escherichia coli
Conditions: not given

Chain of Mitogen-activated protein kinase 14 (Q16539 whole entry): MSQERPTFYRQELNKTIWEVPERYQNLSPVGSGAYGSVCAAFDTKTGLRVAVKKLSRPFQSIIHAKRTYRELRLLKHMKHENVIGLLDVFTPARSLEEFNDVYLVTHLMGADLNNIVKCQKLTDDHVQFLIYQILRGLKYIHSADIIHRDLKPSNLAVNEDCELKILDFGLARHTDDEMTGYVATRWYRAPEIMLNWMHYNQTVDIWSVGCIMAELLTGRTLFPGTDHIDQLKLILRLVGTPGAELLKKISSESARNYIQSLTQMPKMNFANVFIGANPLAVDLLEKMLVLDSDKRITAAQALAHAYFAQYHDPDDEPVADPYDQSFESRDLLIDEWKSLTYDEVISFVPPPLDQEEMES

SMILES | IC50
c1ccc2[nH]c(-c3cscn3)nc2c1 [THIABENDAZOLE] | Not Active
C[C@](N)(Cc1ccc(O)cc1)C(=O)O [METYROSINE] | Not Active
CCC[C@@H]1C[C@@H](C(=O)N[C@@H]([C@H]2O[C@H](SC)[C@H](O)[C@@H](O)[C@H]2O)[C@@H](C)O)N(C)C1 [LINCOMYCIN] | Not Active

Target: D(3) dopamine receptor (Homo sapiens, UniProt P35462)
Sequence (P35462 whole entry): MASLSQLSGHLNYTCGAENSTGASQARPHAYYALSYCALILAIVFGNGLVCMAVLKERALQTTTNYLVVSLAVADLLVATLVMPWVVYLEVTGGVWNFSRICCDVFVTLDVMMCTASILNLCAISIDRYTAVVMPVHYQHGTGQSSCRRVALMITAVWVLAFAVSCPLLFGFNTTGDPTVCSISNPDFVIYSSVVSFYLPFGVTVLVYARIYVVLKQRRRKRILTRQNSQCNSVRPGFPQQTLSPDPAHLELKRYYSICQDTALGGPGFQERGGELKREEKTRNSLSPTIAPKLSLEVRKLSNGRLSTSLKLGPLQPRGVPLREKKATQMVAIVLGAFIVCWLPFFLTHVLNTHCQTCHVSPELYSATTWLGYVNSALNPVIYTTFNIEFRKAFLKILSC
Assay: DRUGMATRIX: Dopamine D3 radioligand binding (ligand: [3H] Spiperone)
Type: cell membranes, CHO, Membrane
Conditions: cho

SMILES | IC50
c1ccc2[nH]c(-c3cscn3)nc2c1 [THIABENDAZOLE] | Not Active
C[C@](N)(Cc1ccc(O)cc1)C(=O)O [METYROSINE] | Not Active
CCC[C@@H]1C[C@@H](C(=O)N[C@@H]([C@H]2O[C@H](SC)[C@H](O)[C@@H](O)[C@H]2O)[C@@H](C)O)N(C)C1 [LINCOMYCIN] | Not Active

Target: Beta-2 adrenergic receptor (Homo sapiens, UniProt P07550)
Sequence (P07550 whole entry): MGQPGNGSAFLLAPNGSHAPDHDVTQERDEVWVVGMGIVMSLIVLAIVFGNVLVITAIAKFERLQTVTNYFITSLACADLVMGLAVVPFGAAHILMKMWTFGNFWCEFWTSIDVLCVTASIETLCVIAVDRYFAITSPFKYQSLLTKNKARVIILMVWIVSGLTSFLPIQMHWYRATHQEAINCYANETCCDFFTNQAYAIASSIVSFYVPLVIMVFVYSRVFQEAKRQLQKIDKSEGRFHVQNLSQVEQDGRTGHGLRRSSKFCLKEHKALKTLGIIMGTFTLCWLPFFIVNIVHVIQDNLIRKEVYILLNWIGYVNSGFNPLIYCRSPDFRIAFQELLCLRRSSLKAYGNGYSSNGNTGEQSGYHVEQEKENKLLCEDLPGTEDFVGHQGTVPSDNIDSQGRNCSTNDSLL
Assay: DRUGMATRIX: Adrenergic beta2 radioligand binding (ligand: [3H] CGP-12177)
Type: cell membranes, Membrane
Conditions: cho; Not Active = under 50% inhibition at 10 µM

SMILES | IC50
c1ccc2[nH]c(-c3cscn3)nc2c1 [THIABENDAZOLE] | Not Active
C[C@](N)(Cc1ccc(O)cc1)C(=O)O [METYROSINE] | Not Active
CCC[C@@H]1C[C@@H](C(=O)N[C@@H]([C@H]2O[C@H](SC)[C@H](O)[C@@H](O)[C@H]2O)[C@@H](C)O)N(C)C1 [LINCOMYCIN] | Not Active

Target: T1, Polyunsaturated fatty acid lipoxygenase ALOX15 (Oryctolagus cuniculus, UniProt P12530);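 also: inhibition of 15-lipoxygenase enzyme activity measured with linoleic acid as the substrate; in other assays of this panel Not Active means under 50% inhibition at 10 µM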
T1 sequence (P12530 whole entry): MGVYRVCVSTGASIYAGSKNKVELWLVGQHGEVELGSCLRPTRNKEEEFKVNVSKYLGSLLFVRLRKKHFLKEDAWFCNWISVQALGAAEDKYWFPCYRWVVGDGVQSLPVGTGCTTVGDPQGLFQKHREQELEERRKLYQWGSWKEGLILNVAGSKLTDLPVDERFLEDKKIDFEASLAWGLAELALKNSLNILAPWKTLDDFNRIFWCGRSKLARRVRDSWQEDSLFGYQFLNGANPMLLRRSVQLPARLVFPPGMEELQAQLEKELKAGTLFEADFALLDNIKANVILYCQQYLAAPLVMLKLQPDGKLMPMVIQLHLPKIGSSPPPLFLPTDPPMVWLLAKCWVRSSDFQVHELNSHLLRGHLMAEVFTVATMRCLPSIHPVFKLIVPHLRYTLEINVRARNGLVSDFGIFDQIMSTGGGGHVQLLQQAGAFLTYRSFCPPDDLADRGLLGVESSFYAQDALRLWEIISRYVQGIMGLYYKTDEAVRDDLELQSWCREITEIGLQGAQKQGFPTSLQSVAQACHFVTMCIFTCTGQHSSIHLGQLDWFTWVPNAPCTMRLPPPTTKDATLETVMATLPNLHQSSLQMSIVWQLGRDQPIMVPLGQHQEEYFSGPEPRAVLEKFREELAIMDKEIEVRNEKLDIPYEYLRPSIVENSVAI
Assay: biochemical
Type: tissue-based, Reticulocytes
Conditions: reticulocytes

SMILES | IC50
c1ccc2[nH]c(-c3cscn3)nc2c1 [THIABENDAZOLE] | Not Active
C[C@](N)(Cc1ccc(O)cc1)C(=O)O [METYROSINE] | Not Active
CCC[C@@H]1C[C@@H](C(=O)N[C@@H]([C@H]2O[C@H](SC)[C@H](O)[C@@H](O)[C@H]2O)[C@@H](C)O)N(C)C1 [LINCOMYCIN] | Not Active

System: not listed separately
Assay: DRUGMATRIX: beta-Lactamase enzyme inhibition (substrate: Nitrocefin)
Design: species or system Bacillus cereus
Conditions: Not Active = under 50% inhibition at 10 µM

SMILES | IC50 | Ki
c1ccc2[nH]c(-c3cscn3)nc2c1 [THIABENDAZOLE] | Not Active | Not Active
C[C@](N)(Cc1ccc(O)cc1)C(=O)O [METYROSINE] | Not Active | Not Active
CCC[C@@H]1C[C@@H](C(=O)N[C@@H]([C@H]2O[C@H](SC)[C@H](O)[C@@H](O)[C@H]2O)[C@@H](C)O)N(C)C1 [LINCOMYCIN] | Not Active | Not Active

System: not listed separately
Assay: DRUGMATRIX: Glutamate, AMPA radioligand binding (ligand: [3H] AMPA)
Type: cell membranes, Rattus norvegicus, Wistar, Cerebral cortex, Membrane
Conditions: Not Active = under 50% inhibition at 10 µM

SMILES | IC50 | Ki
c1ccc2[nH]c(-c3cscn3)nc2c1 [THIABENDAZOLE] | Not Active | Not Active
C[C@](N)(Cc1ccc(O)cc1)C(=O)O [METYROSINE] | Not Active | Not Active
CCC[C@@H]1C[C@@H](C(=O)N[C@@H]([C@H]2O[C@H](SC)[C@H](O)[C@@H](O)[C@H]2O)[C@@H](C)O)N(C)C1 [LINCOMYCIN] | Not Active | Not Active

Target: T2, Adenosine receptor A1 (Homo sapiens, UniProt P30542);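 also: radioligand binding assay at the adenosine A1 receptor, with DPCPX serving as the labelled ligand; in other assays of this panel Not Active means under 50% inhibition at 10 µM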
T2 sequence (P30542 whole entry): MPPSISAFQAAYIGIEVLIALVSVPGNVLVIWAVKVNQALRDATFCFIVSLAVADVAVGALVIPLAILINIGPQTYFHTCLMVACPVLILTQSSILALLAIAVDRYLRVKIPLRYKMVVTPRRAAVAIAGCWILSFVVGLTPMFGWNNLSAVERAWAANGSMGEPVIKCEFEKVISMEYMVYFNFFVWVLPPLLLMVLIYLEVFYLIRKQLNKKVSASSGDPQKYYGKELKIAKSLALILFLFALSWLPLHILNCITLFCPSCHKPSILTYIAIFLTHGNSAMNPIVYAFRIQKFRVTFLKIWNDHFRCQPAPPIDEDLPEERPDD
Assay: not given
Type: cell membranes, CHO, Membrane
Conditions: cho

SMILES | IC50
c1ccc2[nH]c(-c3cscn3)nc2c1 [THIABENDAZOLE] | Not Active
C[C@](N)(Cc1ccc(O)cc1)C(=O)O [METYROSINE] | Not Active
CCC[C@@H]1C[C@@H](C(=O)N[C@@H]([C@H]2O[C@H](SC)[C@H](O)[C@@H](O)[C@H]2O)[C@@H](C)O)N(C)C1 [LINCOMYCIN] | Not Active

Target: C-C chemokine receptor type 5 (Homo sapiens, UniProt P51681); also: in other assays of this panel Not Active means under 50% inhibition at 10 µM
Sequence (P51681 whole entry): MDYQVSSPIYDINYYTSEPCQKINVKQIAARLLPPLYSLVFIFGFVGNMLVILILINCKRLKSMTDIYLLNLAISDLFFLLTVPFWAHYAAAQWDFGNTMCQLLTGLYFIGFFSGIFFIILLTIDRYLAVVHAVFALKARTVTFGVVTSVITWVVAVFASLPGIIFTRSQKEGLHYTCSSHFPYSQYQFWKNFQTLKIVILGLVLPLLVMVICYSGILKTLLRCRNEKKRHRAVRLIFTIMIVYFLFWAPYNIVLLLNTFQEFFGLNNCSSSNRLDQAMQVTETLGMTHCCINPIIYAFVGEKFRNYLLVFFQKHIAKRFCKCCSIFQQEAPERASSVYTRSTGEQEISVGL
Assay: not given
Type: cell membranes, Membrane
Conditions: hek293

SMILES | IC50
c1ccc2[nH]c(-c3cscn3)nc2c1 [THIABENDAZOLE] | Not Active
C[C@](N)(Cc1ccc(O)cc1)C(=O)O [METYROSINE] | Not Active
CCC[C@@H]1C[C@@H](C(=O)N[C@@H]([C@H]2O[C@H](SC)[C@H](O)[C@@H](O)[C@H]2O)[C@@H](C)O)N(C)C1 [LINCOMYCIN] | Not Active

Target: T3, Cholecystokinin receptor type A (Homo sapiens, UniProt P32238); also: in other assays of this panel Not Active means under 50% inhibition at 10 µM
T3 sequence (P32238 whole entry): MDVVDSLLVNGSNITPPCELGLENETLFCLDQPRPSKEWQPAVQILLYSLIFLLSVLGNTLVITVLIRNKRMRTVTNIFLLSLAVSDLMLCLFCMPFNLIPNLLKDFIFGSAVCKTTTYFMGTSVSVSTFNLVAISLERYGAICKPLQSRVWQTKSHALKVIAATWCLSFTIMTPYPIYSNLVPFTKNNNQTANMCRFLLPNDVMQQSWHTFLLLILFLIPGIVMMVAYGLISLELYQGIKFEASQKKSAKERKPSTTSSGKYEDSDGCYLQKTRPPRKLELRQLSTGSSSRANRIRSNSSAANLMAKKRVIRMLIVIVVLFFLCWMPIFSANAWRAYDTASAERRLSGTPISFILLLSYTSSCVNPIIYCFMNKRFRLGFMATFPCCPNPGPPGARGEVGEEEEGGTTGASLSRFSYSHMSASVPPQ
Assay: not given
Type: cell membranes, Membrane
Conditions: 1321-n1

SMILES | IC50
c1ccc2[nH]c(-c3cscn3)nc2c1 [THIABENDAZOLE] | Not Active
C[C@](N)(Cc1ccc(O)cc1)C(=O)O [METYROSINE] | Not Active
CCC[C@@H]1C[C@@H](C(=O)N[C@@H]([C@H]2O[C@H](SC)[C@H](O)[C@@H](O)[C@H]2O)[C@@H](C)O)N(C)C1 [LINCOMYCIN] | Not Active

Target: T4, Alpha-2A adrenergic receptor (Homo sapiens, UniProt P08913); also: in other assays of this panel Not Active means under 50% inhibition at 10 µM
T4 sequence (P08913 whole entry): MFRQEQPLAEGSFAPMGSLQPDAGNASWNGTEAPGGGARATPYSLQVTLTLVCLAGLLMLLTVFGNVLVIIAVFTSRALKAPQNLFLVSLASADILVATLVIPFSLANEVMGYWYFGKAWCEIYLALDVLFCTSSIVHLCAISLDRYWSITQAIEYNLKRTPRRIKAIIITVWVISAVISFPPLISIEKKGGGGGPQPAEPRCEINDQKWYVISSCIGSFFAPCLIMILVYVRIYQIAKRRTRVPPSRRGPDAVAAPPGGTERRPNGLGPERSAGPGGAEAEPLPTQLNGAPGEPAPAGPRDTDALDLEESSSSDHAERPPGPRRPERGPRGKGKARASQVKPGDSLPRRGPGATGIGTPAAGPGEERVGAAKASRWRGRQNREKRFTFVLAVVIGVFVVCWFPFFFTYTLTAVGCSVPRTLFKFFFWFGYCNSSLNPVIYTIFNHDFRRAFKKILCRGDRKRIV
Assay: not given
Type: cell membranes, Sf9, Membrane
Conditions: sf9

SMILES | IC50
c1ccc2[nH]c(-c3cscn3)nc2c1 [THIABENDAZOLE] | Not Active
C[C@](N)(Cc1ccc(O)cc1)C(=O)O [METYROSINE] | Not Active
CCC[C@@H]1C[C@@H](C(=O)N[C@@H]([C@H]2O[C@H](SC)[C@H](O)[C@@H](O)[C@H]2O)[C@@H](C)O)N(C)C1 [LINCOMYCIN] | Not Active

System: not listed separately
Assay: DRUGMATRIX: Atrial Natriuretic Factor (ANF) radioligand binding (ligand: [125I] ANF (rat))
Type: cell membranes, Cavia porcellus, Dunkin-Hartley, Adrenal gland, Membrane
Conditions: Not Active = under 50% inhibition at 10 µM

SMILES | IC50 | Ki
c1ccc2[nH]c(-c3cscn3)nc2c1 [THIABENDAZOLE] | Not Active | Not Active
C[C@](N)(Cc1ccc(O)cc1)C(=O)O [METYROSINE] | Not Active | Not Active
CCC[C@@H]1C[C@@H](C(=O)N[C@@H]([C@H]2O[C@H](SC)[C@H](O)[C@@H](O)[C@H]2O)[C@@H](C)O)N(C)C1 [LINCOMYCIN] | Not Active | Not Active

System: not listed separately
Assay: DRUGMATRIX: Calcium Channel Type L, Dihydropyridine radioligand binding (ligand: [3H] Nitrendipine)
Type: cell membranes, Rattus norvegicus, Wistar, Cerebral cortex, Membrane
Conditions: Not Active = under 50% inhibition at 10 µM

SMILES | IC50 | Ki
c1ccc2[nH]c(-c3cscn3)nc2c1 [THIABENDAZOLE] | Not Active | Not Active
C[C@](N)(Cc1ccc(O)cc1)C(=O)O [METYROSINE] | Not Active | Not Active
CCC[C@@H]1C[C@@H](C(=O)N[C@@H]([C@H]2O[C@H](SC)[C@H](O)[C@@H](O)[C@H]2O)[C@@H](C)O)N(C)C1 [LINCOMYCIN] | Not Active | Not Active

Target: D(1A) dopamine receptor (Homo sapiens, UniProt P21728)
Sequence (P21728 whole entry): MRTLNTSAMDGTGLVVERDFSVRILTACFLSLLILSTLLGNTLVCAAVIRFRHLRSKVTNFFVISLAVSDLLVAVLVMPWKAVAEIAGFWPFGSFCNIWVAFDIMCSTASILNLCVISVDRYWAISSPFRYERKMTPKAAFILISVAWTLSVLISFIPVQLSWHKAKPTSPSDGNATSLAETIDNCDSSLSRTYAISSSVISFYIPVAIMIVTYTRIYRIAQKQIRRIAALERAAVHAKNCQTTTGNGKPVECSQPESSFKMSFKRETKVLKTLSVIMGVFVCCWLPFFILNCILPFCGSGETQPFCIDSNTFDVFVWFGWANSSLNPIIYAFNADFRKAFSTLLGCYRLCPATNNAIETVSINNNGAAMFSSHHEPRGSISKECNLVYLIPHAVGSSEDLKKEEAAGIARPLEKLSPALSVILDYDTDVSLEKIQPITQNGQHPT
Assay: DRUGMATRIX: Dopamine D1 radioligand binding (ligand: [3H] SCH-23390)
Type: cell membranes, CHO, Membrane
Conditions: cho; Not Active = under 50% inhibition at 10 µM

SMILES | IC50
c1ccc2[nH]c(-c3cscn3)nc2c1 [THIABENDAZOLE] | Not Active
C[C@](N)(Cc1ccc(O)cc1)C(=O)O [METYROSINE] | Not Active
CCC[C@@H]1C[C@@H](C(=O)N[C@@H]([C@H]2O[C@H](SC)[C@H](O)[C@@H](O)[C@H]2O)[C@@H](C)O)N(C)C1 [LINCOMYCIN] | Not Active

Target: 5-hydroxytryptamine receptor 2B (Homo sapiens, UniProt P41595); also: in other assays of this panel Not Active means under 50% inhibition at 10 µM
Sequence (P41595 whole entry): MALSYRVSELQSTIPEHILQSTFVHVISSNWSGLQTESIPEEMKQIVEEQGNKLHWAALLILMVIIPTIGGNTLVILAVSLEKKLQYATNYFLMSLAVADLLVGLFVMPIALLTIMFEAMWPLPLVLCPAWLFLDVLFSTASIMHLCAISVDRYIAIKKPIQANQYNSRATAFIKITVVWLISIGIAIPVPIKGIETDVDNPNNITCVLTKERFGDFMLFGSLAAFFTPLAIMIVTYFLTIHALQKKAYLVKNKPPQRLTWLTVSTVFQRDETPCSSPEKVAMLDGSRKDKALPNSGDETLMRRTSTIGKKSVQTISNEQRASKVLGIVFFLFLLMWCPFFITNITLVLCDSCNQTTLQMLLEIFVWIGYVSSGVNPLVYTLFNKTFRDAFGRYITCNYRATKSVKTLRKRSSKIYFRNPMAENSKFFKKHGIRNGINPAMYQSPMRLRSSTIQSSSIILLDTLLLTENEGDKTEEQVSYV
Assay: not given
Type: cell membranes, CHO-K1, Membrane
Conditions: cho-k1

SMILES | IC50
c1ccc2[nH]c(-c3cscn3)nc2c1 [THIABENDAZOLE] | Not Active
C[C@](N)(Cc1ccc(O)cc1)C(=O)O [METYROSINE] | Not Active
CCC[C@@H]1C[C@@H](C(=O)N[C@@H]([C@H]2O[C@H](SC)[C@H](O)[C@@H](O)[C@H]2O)[C@@H](C)O)N(C)C1 [LINCOMYCIN] | Not Active

Target: Aldo-keto reductase family 1 member B1 (Rattus norvegicus, UniProt P07943)
Assay: not given
Type: tissue-based, Lens of camera-type eye
Conditions: not given

SMILES | IC50
c1ccc2[nH]c(-c3cscn3)nc2c1 [THIABENDAZOLE] | Not Active
C[C@](N)(Cc1ccc(O)cc1)C(=O)O [METYROSINE] | Not Active
CCC[C@@H]1C[C@@H](C(=O)N[C@@H]([C@H]2O[C@H](SC)[C@H](O)[C@@H](O)[C@H]2O)[C@@H](C)O)N(C)C1 [LINCOMYCIN] | Not Active

Target: Vascular endothelial growth factor receptor 1 (Homo sapiens, UniProt P17948); also: in other assays of this panel Not Active means under 50% inhibition at 10 µM
Sequence (P17948 whole entry): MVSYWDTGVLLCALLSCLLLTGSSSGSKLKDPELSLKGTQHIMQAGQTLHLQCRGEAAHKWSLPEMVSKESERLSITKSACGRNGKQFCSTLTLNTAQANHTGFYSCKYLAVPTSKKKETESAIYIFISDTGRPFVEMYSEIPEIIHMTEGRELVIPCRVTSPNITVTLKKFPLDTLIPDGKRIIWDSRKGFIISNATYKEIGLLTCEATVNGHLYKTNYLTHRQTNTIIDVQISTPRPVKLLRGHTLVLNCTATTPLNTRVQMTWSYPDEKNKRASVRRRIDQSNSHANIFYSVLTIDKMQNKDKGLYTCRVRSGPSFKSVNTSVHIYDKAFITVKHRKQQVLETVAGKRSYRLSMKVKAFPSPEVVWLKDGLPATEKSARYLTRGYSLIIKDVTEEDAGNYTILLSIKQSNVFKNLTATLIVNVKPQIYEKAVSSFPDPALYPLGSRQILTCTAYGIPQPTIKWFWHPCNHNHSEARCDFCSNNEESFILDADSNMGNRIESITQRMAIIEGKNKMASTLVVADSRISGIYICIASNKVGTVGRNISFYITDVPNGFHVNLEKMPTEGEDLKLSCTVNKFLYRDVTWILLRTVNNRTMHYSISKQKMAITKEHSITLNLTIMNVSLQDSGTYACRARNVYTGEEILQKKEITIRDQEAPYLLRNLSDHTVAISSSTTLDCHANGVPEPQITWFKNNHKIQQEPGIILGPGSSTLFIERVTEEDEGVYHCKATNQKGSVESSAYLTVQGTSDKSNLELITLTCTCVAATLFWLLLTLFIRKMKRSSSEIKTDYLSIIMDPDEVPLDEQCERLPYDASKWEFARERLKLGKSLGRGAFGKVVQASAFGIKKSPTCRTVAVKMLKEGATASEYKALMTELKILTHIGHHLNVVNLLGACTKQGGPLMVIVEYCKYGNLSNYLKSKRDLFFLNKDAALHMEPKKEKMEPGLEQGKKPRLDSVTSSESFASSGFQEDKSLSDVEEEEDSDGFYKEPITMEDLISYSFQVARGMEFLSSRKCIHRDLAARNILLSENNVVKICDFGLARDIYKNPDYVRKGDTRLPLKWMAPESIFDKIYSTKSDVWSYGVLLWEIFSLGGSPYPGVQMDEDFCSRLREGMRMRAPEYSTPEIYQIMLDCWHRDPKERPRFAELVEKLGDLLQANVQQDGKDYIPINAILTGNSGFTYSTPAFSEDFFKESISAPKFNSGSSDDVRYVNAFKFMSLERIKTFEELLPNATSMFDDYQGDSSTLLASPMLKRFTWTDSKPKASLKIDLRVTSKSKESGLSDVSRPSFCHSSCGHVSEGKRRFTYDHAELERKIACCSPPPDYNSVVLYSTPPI
Assay: not given
Type: cell-based
Conditions: huvec

SMILES | IC50
c1ccc2[nH]c(-c3cscn3)nc2c1 [THIABENDAZOLE] | Not Active
C[C@](N)(Cc1ccc(O)cc1)C(=O)O [METYROSINE] | Not Active
CCC[C@@H]1C[C@@H](C(=O)N[C@@H]([C@H]2O[C@H](SC)[C@H](O)[C@@H](O)[C@H]2O)[C@@H](C)O)N(C)C1 [LINCOMYCIN] | Not Active

Target: Substance-P receptor (Homo sapiens, UniProt P25103); also: in other assays of this panel Not Active means under 50% inhibition at 10 µM
Sequence (P25103 whole entry): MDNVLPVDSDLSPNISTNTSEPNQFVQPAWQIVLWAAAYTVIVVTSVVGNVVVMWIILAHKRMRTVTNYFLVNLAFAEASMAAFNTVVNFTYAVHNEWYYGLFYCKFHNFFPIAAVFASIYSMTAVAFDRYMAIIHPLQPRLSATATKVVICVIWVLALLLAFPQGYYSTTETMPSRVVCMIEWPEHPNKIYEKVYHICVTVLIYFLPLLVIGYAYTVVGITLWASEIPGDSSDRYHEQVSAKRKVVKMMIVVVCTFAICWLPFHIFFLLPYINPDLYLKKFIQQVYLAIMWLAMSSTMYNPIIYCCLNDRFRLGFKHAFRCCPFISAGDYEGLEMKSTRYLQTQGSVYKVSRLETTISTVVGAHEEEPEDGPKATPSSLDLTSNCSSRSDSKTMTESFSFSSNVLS
Assay: not given
Type: cell membranes, CHO, Membrane
Conditions: cho

SMILES | IC50
c1ccc2[nH]c(-c3cscn3)nc2c1 [THIABENDAZOLE] | Not Active
C[C@](N)(Cc1ccc(O)cc1)C(=O)O [METYROSINE] | Not Active
CCC[C@@H]1C[C@@H](C(=O)N[C@@H]([C@H]2O[C@H](SC)[C@H](O)[C@@H](O)[C@H]2O)[C@@H](C)O)N(C)C1 [LINCOMYCIN] | Not Active
